Where two headings read alike, the source gives them in different places. Where only a bound is given, the exact number is not on record here.

One data set concerns the target PARP2 (Homo sapiens, UniProt Q9UGN5). Kind of data set: PARP enzyme assay (PARP2). In kind it is biochemical. The text has this: Step 2: Ribosylation Reaction
For the next data set, the system named is PAR in UWB 1.289 cells. Kind of data set: PAR inhibition in UWB 1.289 cells (western blot). In kind it is cell-based, human. The conditions noted are these: for PAR % inhibition in UWB 1.289 @ 10 nM: 0.01 µM; for inhibition at 0.01 µM: Homo sapiens. On the procedure: Example-3 UWB 1.289 cells were plated at a predetermined density in a 6-well plate in its respective media and plates were incubated at 37° C. and 5% CO2 overnight. After overnight incubation, the plates were treated with desired concentrations of the compound or DMSO and the plates were incubated at 37° C. and 5% CO2 as required for 24 hours. After completion of 24 hours incubation, total cell lysates were prepared from the treated samples. Lysates were analysed by western-blot analysis and probed with Human PAR specific monoclonal antibody or human specific beta-actin monoclonal antibody (loading control). Western-blot images were developed after exposing them to chemiluminescent substrate and images were captured on imaging system. Target specific bands and loading specific bands were measured using densitometric analysis. Densitometric values of target specific bands were normalized to loading control values. % inhibition of PAR was calculated relative to DMSO treated samples. Results: % inhibitions values are given below in Table-2: […]

The next data set deals with PARP1 (Homo sapiens, UniProt P09874). In words: PARP enzyme assay (PARP1, chemiluminescent histone ribosylation). To be noted: for % inhibition 10 nM / % inhibition 100 nM: PARP enzyme assay; for % inhibition 10 nM: 10 nM compound; for % inhibition 100 nM: 100 nM compound.
Setting [1] is: UWB 1.289 cells, 10 nM, 24 hours, western blot relative to DMSO.
Where [2] appears, read: UWB1289, read-out: PAR % inhibition in UWB 1.289 @ 10 nM, UWB 1.289 cells, 10 nM, 24 hours, western blot relative to DMSO.
Where [3] appears, read: read-out: % inhibition 100 nM, PARP enzyme assay, 100 nM compound.
Setting [4] is: UWB1289, 24 h, read-out: PAR % inhibition in UWB 1.289 @ 10 nM, UWB 1.289 cells, 10 nM, 24 hours, western blot relative to DMSO.

PARP2, sequence (Q9UGN5 whole entry, species assumed): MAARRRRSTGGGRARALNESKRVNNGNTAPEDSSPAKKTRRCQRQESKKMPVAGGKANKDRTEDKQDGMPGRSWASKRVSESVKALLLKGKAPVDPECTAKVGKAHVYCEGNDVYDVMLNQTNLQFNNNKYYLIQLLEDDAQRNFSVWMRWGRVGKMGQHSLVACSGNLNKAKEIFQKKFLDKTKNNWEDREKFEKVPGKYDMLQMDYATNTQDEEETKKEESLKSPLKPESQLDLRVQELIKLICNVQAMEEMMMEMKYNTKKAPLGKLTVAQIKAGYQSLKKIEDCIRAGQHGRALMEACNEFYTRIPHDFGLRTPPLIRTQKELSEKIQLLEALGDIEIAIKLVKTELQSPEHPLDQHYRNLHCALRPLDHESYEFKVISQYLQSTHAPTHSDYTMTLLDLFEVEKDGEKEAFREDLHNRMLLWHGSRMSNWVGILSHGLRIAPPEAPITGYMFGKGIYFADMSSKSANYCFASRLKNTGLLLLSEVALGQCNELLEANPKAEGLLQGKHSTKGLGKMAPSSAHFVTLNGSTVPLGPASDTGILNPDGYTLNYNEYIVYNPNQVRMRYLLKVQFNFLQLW
PARP1, sequence (P09874 whole entry, species assumed): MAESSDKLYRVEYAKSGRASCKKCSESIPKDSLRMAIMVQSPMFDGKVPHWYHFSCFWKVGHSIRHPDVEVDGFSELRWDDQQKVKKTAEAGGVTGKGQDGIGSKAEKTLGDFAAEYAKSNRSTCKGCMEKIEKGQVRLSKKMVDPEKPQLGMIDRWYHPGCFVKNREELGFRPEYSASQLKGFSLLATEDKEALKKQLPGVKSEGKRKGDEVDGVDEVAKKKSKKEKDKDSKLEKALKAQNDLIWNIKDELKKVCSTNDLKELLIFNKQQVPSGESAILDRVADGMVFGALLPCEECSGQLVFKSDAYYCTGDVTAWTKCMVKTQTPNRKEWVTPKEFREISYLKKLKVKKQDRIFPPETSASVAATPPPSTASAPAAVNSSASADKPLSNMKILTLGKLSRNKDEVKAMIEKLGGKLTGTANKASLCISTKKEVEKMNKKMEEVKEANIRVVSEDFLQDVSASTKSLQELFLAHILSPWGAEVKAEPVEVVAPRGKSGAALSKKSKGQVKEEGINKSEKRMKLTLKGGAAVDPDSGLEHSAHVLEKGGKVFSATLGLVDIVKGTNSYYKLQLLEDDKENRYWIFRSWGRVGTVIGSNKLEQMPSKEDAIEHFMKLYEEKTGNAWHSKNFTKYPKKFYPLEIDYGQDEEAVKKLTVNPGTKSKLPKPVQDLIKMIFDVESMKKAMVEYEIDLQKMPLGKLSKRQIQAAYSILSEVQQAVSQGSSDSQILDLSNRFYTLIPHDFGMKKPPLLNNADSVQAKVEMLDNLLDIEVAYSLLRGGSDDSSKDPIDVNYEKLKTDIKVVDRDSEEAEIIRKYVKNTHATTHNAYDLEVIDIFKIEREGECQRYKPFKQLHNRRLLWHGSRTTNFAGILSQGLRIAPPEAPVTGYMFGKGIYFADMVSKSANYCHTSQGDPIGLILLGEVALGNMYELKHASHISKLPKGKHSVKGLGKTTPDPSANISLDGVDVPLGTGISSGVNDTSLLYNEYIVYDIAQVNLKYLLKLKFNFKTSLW
Method for PARP1: 1) Coat 25 µL of histone solution onto a 384-well plate as described below: • Dilute 5x histone mixture 1:5 with PBS. • Add 25 µL of diluted histone solution to each well and incubate at 4° C. overnight. • Wash the plate three times using 100 µL PBST buffer (1x PBS containing 0.05% Tween20) per well. • Tap plate onto clean paper towel to remove liquid. • Block the wells by adding 100 µL of Blocking buffer 3 to every well. Incubate at room temperature for 1 h 15 minutes. • Wash plate three times with 100 µL PBST buffer as described above. • Tap plate onto clean paper towel to remove liquid.
1) Preparation of 1X PARP Buffer: • Prepare 1x PARP buffer by adding 1 part of 10x PARP buffer to 9 parts distilled water (v/v). To prepare 500 µL of 1X PARP buffer, add 50 µL 10X PARP Assay buffer to 450 µL of H2O and mix well.
2) Preparation of the Ribosylation master mixture: • N wells x (1.25 µL 10x PARP buffer + 1.25 µL 10X PARP Assay mixture + 2.5 µL Activated DNA + 7.5 µL distilled water). Add 12.5 µL to every well.
3) Preparation of the inhibitor solution: • 10 mM stock solution of the inhibitor was prepared in DMSO. From 10 mM stock solution, 250X concentrations of the inhibitor were made in DMSO. • 250X DMSO concentrations of the inhibitor were further diluted to 10X concentrations in 1X kinase buffer. • 2.5 µL (10X concentrations) of kinase buffer containing inhibitor was added to each well. • For the “Positive Control” and “Blank”, add 2.5 µL of kinase buffer containing DMSO (4%) was added. • The final DMSO concentration in the well was 0.4 %.
4) Preparation of the enzyme solution: • Thaw PARP1 enzyme on ice. Upon first thaw, briefly spin tube containing enzyme to recover full content of the tube. Calculate the amount of PARP1 required for the assay and dilute enzyme to 2.0 ng/µL with 1x PARP buffer. • Initiate reaction by adding 10 µL of diluted PARP1 enzyme to the wells designated “Positive Control” and “Test Inhibitor”. • To the wells designated as “Blank”, add 10 µL of 1X PARP buffer. • Centrifuge the plate at 1000 rpm for 30 seconds and incubate at room temperature for 60 min. • Discard the reaction mixture after 1 hour, and wash plate three times with 100 µL PBST buffer and tap plate onto clean paper towel as described above.
1) Preparation of Streptavidin-HRP: • Dilute Streptavidin-HRP 1:50 in Blocking buffer. • Add 25 µL of diluted Streptavidin-HRP to each well. Incubate for 30 min. at room temperature. • Wash three times with 100 µL PBST buffer and tap plate onto clean paper towel as above as described above.
2) Preparation of ECL substrate: • Just before use, mix on ice equal amounts of ELISA ECL Substrate A and ELISA ECL Substrate B and add 50 µL per well. • Immediately read the plate in microtiter-plate in Chemiluminescence setting. The “Blank” value is subtracted from all other values.

In turn, `CC1(O)C(=O)N(c2cncc(Cc3n[nH]c(=O)c4cc(F)ccc34)c2)c2ccccc21` (single isomer, unassigned; (+)) [Example 7, (+)-7-Fluoro-4-((5-(3-hydroxy-3-methyl-2-oxoindolin-1-yl)pyridin-3-yl)methyl)phthalazin-1(2H)-one] registered a melting point of 148 to 151 °C. Also, the IC50 against PARP2 is less than 10 nM. For the same molecule, the “PAR % inhibition in UWB 1.289 @ 10 nM” value in the data set on PAR in UWB 1.289 cells (setting [1]) is listed as “A (A represents >75% to 100%)”.

`CC1(O)C(=O)N(c2cncc(Cc3n[nH]c(=O)c4ccccc34)c2)c2ccc(F)cc21` (single isomer, unassigned; (-)) [Example 15, (-)-4-((5-(5-Fluoro-3-hydroxy-3-methyl-2-oxoindolin-1-yl)pyridin-3-yl)methyl)phthalazin-1(2H)-one] showed a melting point of 197 to 200 °C. Also, the IC50 on PARP2 was less than 10 nM. Also, the “PAR % inhibition in UWB 1.289 @ 10 nM” value with PAR in UWB 1.289 cells (setting [1]) was “D (D represents ≤25%)”. The “% inhibition 10 nM” value at PARP1 (0.01 µM) is “A (A represents >75% to 100%)”. Moreover, on PARP1, the “% inhibition 100 nM” value was “A (A represents >75% to 100%)”. The IC50 on PARP1 (read-out: IC50 (nM)-PARP1) was less than 10 nM.

On to `CC1(O)C(=O)N(c2cncc(Cc3n[nH]c(=O)c4ccccc34)c2)c2ccccc21` (centres unmarked) [Example 1, 4-((5-(3-Hydroxy-3-methyl-2-oxoindolin-1-yl)pyridin-3-yl)methyl)phthalazin-1(2H)-one], for which the melting point is 110 to 113 °C. Besides, the IC50 on PARP2 was less than 10 nM. Also, in the data set on PAR in UWB 1.289 cells (setting [2]), the inhibition at 0.01 µM was in the range of 50 to 75%. For the same molecule, the IC50 on PARP1 was less than 10 nM. Further, the inhibition at 0.01 µM at PARP1 (read-out: % inhibition 10 nM) lay in the range of 75 to 100%. For the same molecule, the inhibition at 0.1 µM at PARP1 (read-out: % inhibition 100 nM) lay within 75 to 100%.

As for `CC1(O)C(=O)N(c2cncc(Cc3n[nH]c(=O)c4cc(F)ccc34)c2)c2ccc(F)cc21` (single isomer, unassigned; (+)) [Example 11, (+)-7-Fluoro-4-((5-(5-fluoro-3-hydroxy-3-methyl-2-oxoindolin-1-yl)pyridin-3-yl)methyl)phthalazin-1(2H)-one], the melting point was in the range of 148 to 151 °C. In addition, the 50% inhibitory concentration (IC50) against PARP2 is less than 10 nM. Also, the “PAR % inhibition in UWB 1.289 @ 10 nM” value with PAR in UWB 1.289 cells (setting [1]) is “A (A represents >75% to 100%)”. At PARP1, this molecule returned a 50% inhibitory concentration (IC50) of less than 10 nM. Also, the inhibition at 0.01 µM at PARP1 (read-out: % inhibition 10 nM, PARP enzyme assay, 10 nM compound) was in the range of 75 to 100%. Also, the inhibition at 0.1 µM on PARP1 (setting [3]) lay within 75 to 100%.

`CC1(O)C(=O)N(c2cncc(Cc3n[nH]c(=O)c4ccccc34)c2)c2ccc(F)cc21` (single isomer, unassigned; (+)) [Example 14, (+)-4-((5-(5-Fluoro-3-hydroxy-3-methyl-2-oxoindolin-1-yl)pyridin-3-yl)methyl)phthalazin-1(2H)-one] returned a melting point of 198 to 201 °C. In addition, the half-inhibitory concentration (IC50) against PARP2 is less than 10 nM. Moreover, the “PAR % inhibition in UWB 1.289 @ 10 nM” value in the data set with PAR in UWB 1.289 cells (setting [1]) is recorded as “A (A represents >75% to 100%)”. This molecule came in with a half-inhibitory concentration (IC50) against PARP1 of less than 10 nM. Also, the “% inhibition 10 nM” value at PARP1 (0.01 µM) is reported as “B (B represents >50% to ≤75%)”. The inhibition at 0.1 µM on PARP1 (setting [3]) lay in the range of 75 to 100%.

Take `CC1(O)C(=O)N(c2cc(Cc3n[nH]c(=O)c4cc(F)ccc34)ccn2)c2ccccc21` (single isomer, unassigned; (-)) [Example 22, (-)-7-Fluoro-4-((2-(3-hydroxy-3-methyl-2-oxoindolin-1-yl)pyridin-4-yl)methyl)phthalazin-1(2H)-one]: the melting point fell in the range of 165 to 168 °C. The molecule further showed a half-maximal inhibitory concentration (IC50) against PARP2 of less than 10 nM. In the data set on PAR in UWB 1.289 cells (setting [4]), the inhibition at 0.01 µM was in the range of 25 to 50%.

On to `CC1(O)C(=O)N(c2cc(Cc3n[nH]c(=O)c4cc(F)ccc34)ccn2)c2ccc(F)cc21` (centres unmarked) [Example 24, 7-Fluoro-4-((2-(5-fluoro-3-hydroxy-3-methyl-2-oxoindolin-1-yl)pyridin-4-yl)methyl)phthalazin-1(2H)-one], for which the melting point lay within 225 to 228 °C. This molecule also registered a half-inhibitory concentration (IC50) at PARP2 of less than 10 nM. Further, the inhibition at 0.01 µM in the data set on PAR in UWB 1.289 cells (setting [2]) was in the range of 25 to 50%. Moreover, the 50% inhibitory concentration (IC50) at PARP1 was less than 10 nM.

For the molecule `C[C@@]1(O)C(=O)N(c2cncc(Cc3n[nH]c(=O)c4ccccc34)c2)c2ccccc21` [Example 3, (S)-(-)-4-((5-(3-Hydroxy-3-methyl-2-oxoindolin-1-yl)pyridin-3-yl)methyl)phthalazin-1(2H)-one], the melting point was in the range of 94 to 97 °C. The IC50 at PARP2 is less than 10 nM. Also, the inhibition at 0.01 µM in the data set with PAR in UWB 1.289 cells (setting [4]) is less than 25%. The same molecule returned a 50% inhibitory concentration (IC50) at PARP1 of less than 10 nM.

Regarding `CC1(O)C(=O)N(c2cncc(Cc3n[nH]c(=O)c4cc(F)ccc34)c2)c2ccccc21` (single isomer, unassigned; (-)) [Example 8, (-)-7-Fluoro-4-((5-(3-hydroxy-3-methyl-2-oxoindolin-1-yl)pyridin-3-yl)methyl)phthalazin-1(2H)-one], the melting point is 138 to 141 °C. Further, the IC50 on PARP2 is less than 10 nM. For the same molecule, in the data set with PAR in UWB 1.289 cells (setting [1]), the “PAR % inhibition in UWB 1.289 @ 10 nM” value is given as “C (C represents >25% to ≤50%)”.

`CC1(O)C(=O)N(c2cc(Cc3n[nH]c(=O)c4cc(F)ccc34)ccn2)c2ccccc21` (centres unmarked) [Example 21, 7-Fluoro-4-((2-(3-hydroxy-3-methyl-2-oxoindolin-1-yl)pyridin-4-yl)methyl)phthalazin-1(2H)-one]: the melting point is 187 to 189 °C. This molecule gave a half-inhibitory concentration (IC50) against PARP2 of more than 10 nM. Further, the inhibition at 0.01 µM with PAR in UWB 1.289 cells (setting [2]) lay in the range of 25 to 50%.

Turning to `CC1(O)C(=O)N(c2cncc(Cc3n[nH]c(=O)c4cc(F)ccc34)c2)c2ccc(F)cc21` (single isomer, unassigned; (-)) [Example 12, (-)-7-Fluoro-4-((5-(5-fluoro-3-hydroxy-3-methyl-2-oxoindolin-1-yl)pyridin-3-yl)methyl)phthalazin-1(2H)-one], the melting point lay within 154 to 157 °C. This molecule also showed an IC50 at PARP2 of less than 10 nM. Further, the “PAR % inhibition in UWB 1.289 @ 10 nM” value in the data set with PAR in UWB 1.289 cells (setting [1]) is given as “D (D represents ≤25%)”. At PARP1, the “% inhibition 10 nM” value was “A (A represents >75% to 100%)” and the “% inhibition 100 nM” value is “A (A represents >75% to 100%)”. Also, at PARP1 (read-out: IC50 (nM)-PARP1), the concentration for half-maximal inhibition (IC50) is less than 10 nM.

For `O=C1N(c2cncc(Cc3n[nH]c(=O)c4ccccc34)c2)c2ccccc2C1(O)C(F)(F)F` (centres unmarked) [Example 25, 4-((5-(3-Hydroxy-2-oxo-3-(trifluoromethyl)indolin-1-yl)pyridin-3-yl)methyl)phthalazin-1(2H)-one], the melting point was in the range of 258 to 260 °C. The molecule further displayed a half-inhibitory concentration (IC50) against PARP2 of less than 10 nM. Also, in the data set on PAR in UWB 1.289 cells (setting [2]), the inhibition at 0.01 µM fell in the range of 25 to 50%. This molecule also came in with a half-maximal inhibitory concentration (IC50) against PARP1 of less than 10 nM. The inhibition at 0.01 µM on PARP1 (read-out: % inhibition 10 nM) lay in the range of 75 to 100%. The inhibition at 0.1 µM at PARP1 (read-out: % inhibition 100 nM) was in the range of 75 to 100%.

On to `CC1(O)C(=O)N(c2cc(Cc3n[nH]c(=O)c4ccccc34)ccn2)c2ccccc21` (single isomer, unassigned; (+)) [Example 20, (+)-4-((2-(3-Hydroxy-3-methyl-2-oxoindolin-1-yl)pyridin-4-yl)methyl)phthalazin-1(2H)-one], for which the melting point is 205 to 208 °C. For the same molecule, at PARP2, the IC50 is less than 10 nM. Further, in the data set with PAR in UWB 1.289 cells (setting [4]), the inhibition at 0.01 µM fell in the range of 50 to 75%. On PARP1, the “% inhibition 10 nM” value is recorded as “A (A represents >75% to 100%)” and the “% inhibition 100 nM” value is listed as “A (A represents >75% to 100%)”. For the same molecule, the IC50 at PARP1 (read-out: IC50 (nM)-PARP1) is less than 10 nM.

`CC1(O)C(=O)N(c2cc(Cc3n[nH]c(=O)c4cc(F)ccc34)ccn2)c2ccccc21` (single isomer, unassigned; (+)) [Example 23, (+)-7-Fluoro-4-((2-(3-hydroxy-3-methyl-2-oxoindolin-1-yl)pyridin-4-yl)methyl)phthalazin-1(2H)-one] showed a melting point of 167 to 170 °C. This molecule also displayed an IC50 at PARP2 of less than 10 nM. In addition, in the data set with PAR in UWB 1.289 cells (setting [1]), the “PAR % inhibition in UWB 1.289 @ 10 nM” value is on record as “D (D represents ≤25%)”.

As to `C[C@]1(O)C(=O)N(c2cncc(Cc3n[nH]c(=O)c4ccccc34)c2)c2ccccc21` [Example 2, (R)-(+)-4-((5-(3-Hydroxy-3-methyl-2-oxoindolin-1-yl)pyridin-3-yl)methyl)phthalazin-1(2H)-one], the concentration for half-maximal inhibition (IC50) against PARP2 and at PARP1 was less than 10 nM each time. Besides, the inhibition at 0.01 µM with PAR in UWB 1.289 cells (setting [4]) was 75 to 100%.

(Values after US20230234938A1 (RHIZEN PHARMACEUTICALS AG, priority 2020, published 2023).)
